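In this assay, cells in 96-well plates receive the compound at five concentrations for 48 hours. Endpoints are linearly interpolated between the surrounding concentrations. GI50 is the concentration that inhibits growth by half. TGI denotes the concentration required for complete inhibition of growth.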
Tests used:
Assay in all cases: inhibition of tumour cell growth, NCI panel, 48 h
M14 melanoma = tested on: M14 melanoma
MCF7 breast = tested on: MCF7 breast
U251 CNS = tested on: U251 CNS
SR leukemia = tested on: SR leukemia
RPMI-8226 leukemia = tested on: RPMI-8226 leukemia
HCT-15 colon = tested on: HCT-15 colon
NCI-H522 lung = tested on: NCI-H522 lung
CAKI-1 renal = tested on: CAKI-1 renal
EKVX NSCLC = tested on: EKVX NSCLC
UO-31 renal = tested on: UO-31 renal
IGROV1 ovarian = tested on: IGROV1 ovarian
T-47D breast = tested on: T-47D breast
OVCAR-5 ovarian = tested on: OVCAR-5 ovarian
OVCAR-8 ovarian = tested on: OVCAR-8 ovarian
A498 renal = tested on: A498 renal
HOP-62 NSCLC = tested on: HOP-62 NSCLC
SF-539 CNS = tested on: SF-539 CNS
HCC-2998 colon = tested on: HCC-2998 colon
DU-145 prostate = tested on: DU-145 prostate
NCI-H460 lung = tested on: NCI-H460 lung
K-562 leukemia = tested on: K-562 leukemia
NCI-H23 lung = tested on: NCI-H23 lung
MDA-N = tested on: MDA-N
NCI-H226 lung = tested on: NCI-H226 lung
SNB-19 CNS = tested on: SNB-19 CNS
UACC-257 melanoma = tested on: UACC-257 melanoma
MOLT-4 leukemia = tested on: MOLT-4 leukemia
A549 NSCLC = tested on: A549 NSCLC
MDA-MB-435 = tested on: MDA-MB-435
ACHN renal = tested on: ACHN renal
LOX IMVI melanoma = tested on: LOX IMVI melanoma
SF-295 CNS = tested on: SF-295 CNS
SW-620 colon = tested on: SW-620 colon
SNB-75 CNS = tested on: SNB-75 CNS
COLO 205 colon = tested on: COLO 205 colon
HCT-116 colon = tested on: HCT-116 colon
MDA-MB-231 breast = tested on: MDA-MB-231 breast
KM12 colon = tested on: KM12 colon
SK-MEL-5 melanoma = tested on: SK-MEL-5 melanoma
UACC-62 melanoma = tested on: UACC-62 melanoma
CCRF-CEM leukemia = tested on: CCRF-CEM leukemia
SK-MEL-28 melanoma = tested on: SK-MEL-28 melanoma
RXF 393 renal = tested on: RXF 393 renal
OVCAR-3 ovarian = tested on: OVCAR-3 ovarian
HT29 colon = tested on: HT29 colon
BT-549 breast = tested on: BT-549 breast
SF-268 CNS = tested on: SF-268 CNS
TK-10 renal = tested on: TK-10 renal
SK-OV-3 ovarian = tested on: SK-OV-3 ovarian
NCI/ADR-RES ovarian = tested on: NCI/ADR-RES ovarian
OVCAR-4 ovarian = tested on: OVCAR-4 ovarian
786-0 renal = tested on: 786-0 renal
SK-MEL-2 melanoma = tested on: SK-MEL-2 melanoma
HS 578T breast = tested on: HS 578T breast
PC-3 prostate = tested on: PC-3 prostate
MALME-3M melanoma = tested on: MALME-3M melanoma
HL-60(TB) leukemia = tested on: HL-60(TB) leukemia
HOP-92 NSCLC = tested on: HOP-92 NSCLC
SN12C renal = tested on: SN12C renal

## CCOC(=O)C12CCC(=O)N1N(C)c1ncccc1N2 (stereo unspecified)
M14 melanoma
  TGI: > 100 µM
MCF7 breast
  TGI: > 100 µM
U251 CNS
  TGI: > 100 µM
SR leukemia
  TGI: > 100 µM
RPMI-8226 leukemia
  TGI: > 100 µM
HCT-15 colon
  TGI: > 100 µM
NCI-H522 lung
  TGI: > 100 µM
CAKI-1 renal
  TGI: > 100 µM
EKVX NSCLC
  TGI: > 100 µM
UO-31 renal
  TGI: > 100 µM
IGROV1 ovarian
  TGI: > 100 µM
T-47D breast
  TGI: > 100 µM
OVCAR-5 ovarian
  TGI: > 100 µM
OVCAR-8 ovarian
  TGI: > 100 µM
A498 renal
  TGI: > 100 µM
HOP-62 NSCLC
  TGI: > 100 µM
SF-539 CNS
  TGI: > 100 µM
HCC-2998 colon
  TGI: > 100 µM
DU-145 prostate
  TGI: > 100 µM
NCI-H460 lung
  TGI: > 100 µM
K-562 leukemia
  TGI: > 100 µM
NCI-H23 lung
  TGI: > 100 µM
MDA-N
  TGI: > 100 µM
NCI-H226 lung
  TGI: > 100 µM
SNB-19 CNS
  TGI: > 100 µM
UACC-257 melanoma
  TGI: > 100 µM
MOLT-4 leukemia
  TGI: > 100 µM
A549 NSCLC
  TGI: > 100 µM
MDA-MB-435
  TGI: > 100 µM
ACHN renal
  TGI: > 100 µM
LOX IMVI melanoma
  TGI: > 100 µM
SF-295 CNS
  TGI: > 100 µM
SW-620 colon
  TGI: > 100 µM
SNB-75 CNS
  TGI: > 100 µM
COLO 205 colon
  TGI: > 100 µM
HCT-116 colon
  TGI: > 100 µM
MDA-MB-231 breast
  TGI: > 100 µM
KM12 colon
  TGI: > 100 µM
SK-MEL-5 melanoma
  TGI: > 100 µM
UACC-62 melanoma
  TGI: > 100 µM
CCRF-CEM leukemia
  TGI: > 100 µM
SK-MEL-28 melanoma
  TGI: > 100 µM
RXF 393 renal
  TGI: > 100 µM
OVCAR-3 ovarian
  TGI: > 100 µM
HT29 colon
  TGI: > 100 µM
BT-549 breast
  TGI: > 100 µM
SF-268 CNS
  TGI: > 100 µM
TK-10 renal
  TGI: > 100 µM
SK-OV-3 ovarian
  TGI: > 100 µM
NCI/ADR-RES ovarian
  TGI: > 100 µM
OVCAR-4 ovarian
  TGI: > 100 µM
786-0 renal
  TGI: > 100 µM

## COc1cc(-n2ccnc2-c2ccc3ccccc3c2)cc(OC)c1OC
M14 melanoma
  GI50: 0.0376 µM
  TGI: 1.02 µM
MCF7 breast
  GI50: < 0.0199 µM
  TGI: > 45.8 µM
U251 CNS
  GI50: 0.0907 µM
  TGI: 21.5 µM
SR leukemia
  GI50: < 0.0188 µM
  TGI: > 43.4 µM
SK-MEL-2 melanoma
  GI50: 0.19 µM
  TGI: 26.9 µM
RPMI-8226 leukemia
  GI50: 0.292 µM
  TGI: 20.6 µM
HCT-15 colon
  GI50: 0.0509 µM
  TGI: > 48.6 µM
NCI-H522 lung
  GI50: < 0.0175 µM
  TGI: 13.2 µM
CAKI-1 renal
  GI50: 0.0853 µM
  TGI: > 75.3 µM
EKVX NSCLC
  GI50: 0.481 µM
  TGI: > 72.4 µM
UO-31 renal
  GI50: 0.28 µM
  TGI: 35 µM
HS 578T breast
  GI50: 0.135 µM
  TGI: 10.5 µM
IGROV1 ovarian
  GI50: 0.259 µM
  TGI: > 51.2 µM
T-47D breast
  GI50: 0.633 µM
  TGI: 60.7 µM
OVCAR-5 ovarian
  GI50: 0.408 µM
  TGI: > 93.6 µM
OVCAR-8 ovarian
  GI50: 0.398 µM
  TGI: > 53.1 µM
PC-3 prostate
  GI50: 0.03 µM
  TGI: > 85.8 µM
A498 renal
  GI50: 0.0451 µM
  TGI: 1.42 µM
HOP-62 NSCLC
  GI50: 0.0895 µM
  TGI: 26 µM
SF-539 CNS
  GI50: 0.099 µM
  TGI: 2.06 µM
HCC-2998 colon
  GI50: < 0.0318 µM
  TGI: 0.199 µM
DU-145 prostate
  GI50: 0.175 µM
  TGI: 17.5 µM
NCI-H460 lung
  GI50: 0.0373 µM
  TGI: 14.7 µM
K-562 leukemia
  GI50: < 0.0191 µM
  TGI: > 100 µM
NCI-H23 lung
  GI50: 0.223 µM
  TGI: 13.4 µM
NCI-H226 lung
  GI50: 5.7 µM
  TGI: > 53.7 µM
SNB-19 CNS
  GI50: 0.131 µM
  TGI: > 36.7 µM
UACC-257 melanoma
  GI50: 20 µM
  TGI: > 100 µM
MOLT-4 leukemia
  GI50: 0.284 µM
  TGI: > 50.9 µM
A549 NSCLC
  GI50: 0.12 µM
  TGI: > 45.4 µM
MDA-MB-435
  TGI: 0.124 µM
ACHN renal
  GI50: 2.6 µM
  TGI: 49 µM
LOX IMVI melanoma
  GI50: 1.08 µM
  TGI: > 47.6 µM
SF-295 CNS
  GI50: 0.0363 µM
  TGI: 42.5 µM
SW-620 colon
  GI50: 0.0443 µM
  TGI: > 63 µM
SNB-75 CNS
  GI50: 0.123 µM
  TGI: 36.8 µM
COLO 205 colon
  GI50: < 0.0282 µM
  TGI: 0.785 µM
MALME-3M melanoma
  GI50: 3.66 µM
  TGI: 31.9 µM
HCT-116 colon
  GI50: 0.0382 µM
  TGI: 15.3 µM
HL-60(TB) leukemia
  GI50: 0.0232 µM
  TGI: > 37.6 µM
MDA-MB-231 breast
  GI50: 0.571 µM
  TGI: 44.1 µM
KM12 colon
  GI50: < 0.0198 µM
  TGI: 18.9 µM
SK-MEL-5 melanoma
  GI50: < 0.0198 µM
  TGI: 12.3 µM
HOP-92 NSCLC
  GI50: 3.72 µM
  TGI: 28.9 µM
UACC-62 melanoma
  GI50: 0.0657 µM
  TGI: 15.4 µM
CCRF-CEM leukemia
  GI50: 0.136 µM
  TGI: > 100 µM
SK-MEL-28 melanoma
  GI50: 0.688 µM
  TGI: 38.3 µM
RXF 393 renal
  GI50: 0.17 µM
  TGI: 0.749 µM
OVCAR-3 ovarian
  GI50: 0.0288 µM
  TGI: 19.4 µM
HT29 colon
  GI50: < 0.0222 µM
  TGI: > 37.6 µM
BT-549 breast
  GI50: 0.246 µM
  TGI: 14.9 µM
SF-268 CNS
  GI50: 0.182 µM
  TGI: 49.8 µM
TK-10 renal
  GI50: 0.936 µM
  TGI: 45.2 µM
SN12C renal
  GI50: 1.64 µM
  TGI: > 59 µM
SK-OV-3 ovarian
  GI50: 0.13 µM
  TGI: 24.7 µM
NCI/ADR-RES ovarian
  TGI: 0.472 µM
OVCAR-4 ovarian
  GI50: 6.32 µM
  TGI: > 86.2 µM
786-0 renal
  GI50: 0.161 µM
  TGI: 19 µM

— PubChem BioAssay (NCI)
